According to patent US10792294B2, “Methods for enhancing mucosal innate immune responses to and/or detection of pathogens using human milk oligosaccharides” (ABBOTT LABORATORIES, priority 2014, dated 2020):

What was measured:
Format in all cases: cell-based, human
TLR3 = assay: qRT-PCR RNA expression of TLR3 gene in LS174T cells exposed to HMO; conditions: 48 hours; for fold change in RNA expression of TLR3 relative to Control: normalized to GUSB, P<0.05
Description: (§1) The ability of HMOs to increase expression of mucosal innate immune receptors and cytokines was tested by exposing LS174T human colorectal cancer cells, which are a model of human intestinal goblet cells, to either of the HMOs, 2′-FL or LNnT. The LS174T cells were obtained from the American Type Culture Collection (ATCC). LS174T cells were maintained in minimum essential medium supplemented with 10% Fetalplex, 1.5 g/L of Na2CO3, 10 ml/L penicillin G-streptomycin solution at 37° C. in 5% CO2. Cells were plated at 0.2×10^5 cells/ml/well in 24-well plates and allowed to attach for 24-30 hours. Solutions containing each HMO were prepared by resuspending lyophilized HMO in cell culture grade water to a 10% solution and filter-sterilizing before diluting to the appropriate level in culture media. A solution free of carbohydrates (i.e., fresh medium alone, Control) was also prepared using the same procedure. After preparation of the HMO-containing solutions, the LS174T cell cultures were rinsed with 1×HBSS and then incubated in 0.5 ml of fresh medium alone (Control) or containing 0.1 mg/mL or 1 mg/mL of 2′-FL (2FL), LNnT (LNnT), fucose (FUCOSE), or lactose (LAC) for 48 hours. Cells were harvested at the end of incubation with 1 ml of TRIzol to obtain RNA samples. RNA expression levels of the genes for the mucosal innate immune receptor proteins TLR3, TLR4, CCR2 and the cytokine IL1B were determined by quantitative reverse transcriptase polymerase chain reaction (qRT-PCR) of RNA samples from the cells. Fold change (Fold induction) in the RNA expression levels of the genes for the receptor proteins and the cytokine was normalized based on the change in GUSB transcript expression. Reported fold changes are the mean+/−[…]. Treatments with statistically significant differences in fold expression (P<0.05) are reported with different letters above the bars.

CCR2 = assay: qRT-PCR RNA expression of CCR2 gene in LS174T cells exposed to HMO; conditions: 48 hours; for fold change in RNA expression of CCR2 relative to Control: normalized to GUSB, P<0.05
Description: as §1

MUC2 = assay: qRT-PCR RNA expression of MUC2 gene in LS174T cells exposed to HMO; conditions: 0.1 mg/mL, 48 hours
IL1B = assay: qRT-PCR RNA expression of cytokine IL1B gene in LS174T cells exposed to HMO; conditions: 1 mg/mL, 48 hours, normalized to GUSB, P<0.05
Description: The ability of HMOs to increase expression of mucosal innate immune receptors and cytokines was tested by exposing LS174T human colorectal cancer cells, which are a model of human intestinal goblet cells, to either of the HMOs, 2′-FL or LNnT. The LS174T cells were obtained from the American Type Culture Collection (ATCC). LS174T cells were maintained in minimum essential medium supplemented with 10% Fetalplex, 1.5 g/L of Na2CO3, 10 ml/L penicillin G-streptomycin solution at 37° C. in 5% CO2. Cells were plated at 0.2×10^5 cells/ml/well in 24-well plates and allowed to attach for 24-30 hours. Solutions containing each HMO were prepared by resuspending lyophilized HMO in cell culture grade water to a 10% solution and filter-sterilizing before diluting to the appropriate level in culture media. A solution free of carbohydrates (i.e., fresh medium alone, Control) was also prepared using the same procedure. […] RNA expression levels of the genes for the mucosal innate immune receptor proteins TLR3, TLR4, CCR2 and the cytokine IL1B were determined by quantitative reverse transcriptase polymerase chain reaction (qRT-PCR) of RNA samples from the cells. […]

TLR4 = assay: qRT-PCR RNA expression of TLR4 gene in LS174T cells exposed to HMO; conditions: 48 hours; for fold change in RNA expression of TLR4 relative to Control: normalized to GUSB, P<0.05
Description: as §1

Molecule	increase in TLR3 expression, 0.1 mg/mL treatment compared with 1 mg/mL treatment (TLR3; 0.1 mg/mL vs 1 mg/mL)	fold change in RNA expression of TLR3 relative to Control (TLR3; 0.1 mg/mL)	fold change in RNA expression of TLR3 relative to Control (TLR3; 1 mg/mL)	increase in CCR2 expression, 0.1 mg/mL treatment compared with 1 mg/mL treatment (CCR2; 0.1 mg/mL vs 1 mg/mL)	fold change in RNA expression of CCR2 relative to Control (CCR2; 0.1 mg/mL)	fold change in RNA expression of CCR2 relative to Control (CCR2; 1 mg/mL)	MUC2 gene expression (MUC2)	fold change in RNA expression of IL1B relative to Control (IL1B)	increase in TLR4 expression, 0.1 mg/mL treatment compared with 1 mg/mL treatment (TLR4; 0.1 mg/mL vs 1 mg/mL)	fold change in RNA expression of TLR4 relative to Control (TLR4; 0.1 mg/mL)	fold change in RNA expression of TLR4 relative to Control (TLR4; 1 mg/mL)
2′-fucosyllactose [2′-FL]	greater increase in expression in response to the 0.1 mg/mL 2′-FL treatment than the 1 mg/mL 2′-FL treatment	statistically significant fold change	statistically significant fold change	greater increase in expression in response to the 0.1 mg/mL 2′-FL treatment than the 1 mg/mL 2′-FL treatment	statistically significant fold change	statistically significant fold change	significant increase	statistically significant fold change	greater increase in expression in response to the 0.1 mg/mL 2′-FL treatment than the 1 mg/mL 2′-FL treatment	statistically significant fold change	statistically significant fold change
CC(=O)N[C@H]1[C@H](O[C@H]2[C@@H](O)[C@@H](CO)O[C@@H](O[C@H]3[C@H](O)[C@@H](O)C(O)O[C@@H]3CO)[C@@H]2O)O[C@H](CO)[C@@H](O[C@@H]2O[C@H](CO)[C@H](O)[C@H](O)[C@H]2O)[C@@H]1O (mixture of isomers) [LNnT, lacto-N-neotetraose]	–	–	significant change in expression	–	significantly enhanced	significant change in expression	–	significant change in expression	–	–	significant change in expression
